Assay results as given in US9694019B2, “Compositions and methods for treating bone diseases and broken bones” (BRIGHAM YOUNG UNIVERSITY, priority 2011, dated 2017).

Assays:
[1] = tested on: MC3T3-E1 cells; assay: Quantitative spectroscopic ALP (alkaline phosphatase) assay in MC3T3-E1 cells; type: cell-based; conditions: MC3T3-E1 day 4 of differentiation, with or without 200 ng/mL rhBMP-2 and 50 μM sodium alginate; compared with CSA-90 (FIG. 4)
Method: MC3T3-E1 cells at day 4 of differentiation were treated with or without 200 ng/mL rhBMP-2 (recombinant human BMP-2), 0-50 μM CSA-90, and with or without 50 μM sodium alginate. Quantitative spectroscopic ALP (alkaline phosphatase) assays were performed in on multiple wells and normalized to viable cell number. Experimental assays were carried out twice independently. Data for this analysis is provided in FIG. 4 (from left to right 0, 0.5, 1, 5, 10, 25, and 50 μM CSA-90 were tested with or without BMP-2 and Algin).

[2] = tested on: quadriceps of mice; assay: Ectopic bone formation in quadriceps of mice (muscle pouch model), XR and microCT; type: in vivo
Method: 10 μg rhBMP-2 was implanted into the quadriceps of mice with 0, 25 μg, or 250 μg CSA-90. A control group received 250 μg CSA-90 alone (without rhBMP-2). Bone was allowed to form ectopically over 3 weeks. Specimens were then harvested for XR (FIG. 5) and microCT (FIG. 7).
MicroCT scans were performed on all samples using a Skyscan 1174 microCT scanner. Scanning data confirmed increases in bone volume (BV) with the addition of CSA-90 (See FIG. 6).

[3] = tested on: primary human MSC cells; assay: BMP regulation: gene expression array (SABiosciences PAHS-026) in primary human MSC cells; type: cell-based; conditions: hMSC, 8 hours
Method: SABisosciences custom array plates (Cat#PAHS-026) were used to measure BMP expression. These array plates are validated for efficiency when used at recommended conditions and reagents. On day 1, primary human MSC cells were plated at 200,000 cell/well using 6-well plates with 10% FBS, Penicillin and Streptomycin 10 mL per Liter, in recommended media. Only early passages of cells were used.
On day 2, cells were treated with compounds dissolved in DMSO diluted 1:1000 or more to avoid solvent effects. A non-treated negative control group was evaluated (FIG. 1, “Control Group”) along with a positive control group containing PS1 at 0.1 μM (FIG. 1, “Group 1”). Final testing concentration for CSA-90 was 5.0 μM (FIG. 1, “Group 2”), 2.5 μM (FIG. 1, “Group 3”), and 1.2 μM (FIG. 1, “Group 4”). Treatment lasted 8 hours, followed by RNA isolation using a QIAGEN Miniprep Kit. RNA was measured at 260/280 nm using NanoDrop2000 and normalized to 250 ng. cDNA preparation was done using QIAGEN First Strand kit.

[4] = v. untreated control, concentration not given

SMILES: CCCCCCCCNCCC[C@@H](C)[C@H]1CC[C@H]2[C@@H]3[C@H](OCCCN)C[C@@H]4C[C@H](OCCCN)CC[C@]4(C)[C@H]3C[C@H](OCCCN)[C@]12C [CSA-13]
- ALP (alkaline phosphatase) activity normalized to viable cell number [1]: Comparable results

SMILES: CCCCCN(CCCCC)CCC[C@@H](C)[C@H]1CC[C@H]2[C@@H]3[C@H](OCCCN)C[C@@H]4C[C@H](OCCCN)CC[C@]4(C)[C@H]3C[C@H](OCCCN)[C@]12C [CSA-90]
- increase in bone volume (BV) vs rhBMP-2 alone ([2]; 25 μg with 10 μg rhBMP-2, mice quadriceps, 3 weeks, microCT, parametric P=0.02, nonparametric P<0.01): statistically significant
- bone formation, CSA alone ([2]; 250 μg alone without rhBMP-2, muscle pouch model, mice, 3 weeks, microCT (FIG. 7)): appears to also result in bone formation
- increase in bone volume (BV) vs rhBMP-2 alone ([2]; 250 μg with 10 μg rhBMP-2, mice quadriceps, 3 weeks, microCT, parametric P<0.01, nonparametric P<0.01): statistically significant
- increase of ectopic bone volume induced by rhBMP-2 treatment ([2]; mice quadriceps, 10 μg rhBMP-2 plus CSA-90, 3 weeks, microCT, vs rhBMP-2 alone): about 3.2 fold
- up-regulation of BMP-2 mRNA expression ([3]; 5 μM concentration): ~6 fold
- Fold Up-Regulation ACTB (Actin, beta) [3, 4]: −4.1173 fold
- Fold Up-Regulation AHSG (Alpha-2-HS-glycoprotein) [3, 4]: 1.4077 fold
- Fold Up-Regulation ALPL (Alkaline phosphatase, liver/bone/kidney) [3, 4]: −5.8397 fold
- Fold Up-Regulation AMBN (Ameloblastin) [3, 4]: −1.0298 fold
- Fold Up-Regulation AMELY (Amelogenin, Y-linked) [3, 4]: −1.008 fold
- Fold Up-Regulation ANXA5 (Annexin A5) [3, 4]: −1.0287 fold
- Fold Up-Regulation BGLAP (Bone gamma-carboxyglutamate (gla) protein) [3, 4]: −1.1336 fold
- Fold Up-Regulation BGN (Biglycan) [3, 4]: −2.2679 fold
- Fold Up-Regulation BMP-1 (Bone morphogenetic protein 1) [3, 4]: −1.4719 fold
- Fold Up-Regulation BMP-2 (Bone morphogenetic protein 2) [3, 4]: 6.7295 fold
- Fold Up-Regulation BMP-3 (Bone morphogenetic protein 3) [3, 4]: 1.3888 fold
- Fold Up-Regulation BMP-4 (Bone morphogenetic protein 4) [3, 4]: −3.7558 fold
- Fold Up-Regulation BMP-5 (Bone morphogenetic protein 5) [3, 4]: 2.1036 fold
- Fold Up-Regulation BMP-6 (Bone morphogenetic protein 6) [3, 4]: 14.8826 fold
- Fold Up-Regulation CALCR (CALCITONIN RECEPTOR) [3, 4]: 2.1036 fold
- Fold Up-Regulation CD36 (CD36 molecule, thrombospondin receptor) [3, 4]: −2.3276 fold
- Fold Up-Regulation CDH11 (Cadherin 11, type 2, OB-cadherin) [3, 4]: −2.6119 fold
- Fold Up-Regulation COL1A1 (Collagen, type I, alpha 1) [3, 4]: −1.9589 fold
- Fold Up-Regulation COL1A2 (Collagen, type I, alpha 2) [3, 4]: −1.525 fold
- Fold Up-Regulation COL2A1 (Collagen, type II, alpha 1) [3, 4]: 1.0817 fold
- Fold Up-Regulation COL3A1 (Collagen, type III, alpha 1) [3, 4]: 1.1521 fold
- Fold Up-Regulation COL4A3 (Collagen, type IV, alpha 3) [3, 4]: −9.7105 fold
- Fold Up-Regulation COL5A1 (Collagen, type V, alpha 1) [3, 4]: −1.603 fold
- Fold Up-Regulation COL10A1 (Collagen, type X, alpha 1) [3, 4]: 1.0439 fold
- Fold Up-Regulation COL11A1 (Collagen, type XI, alpha 1) [3, 4]: −2.8055 fold
- Fold Up-Regulation COL12A1 (Collagen, type XII, alpha 1) [3, 4]: −1.366 fold
- Fold Up-Regulation COL14A1 (Collagen, type XIV, alpha 1) [3, 4]: 1.0661 fold
- Fold Up-Regulation COL15A1 (Collagen, type XV, alpha 1) [3, 4]: 1.1217 fold
- Fold Up-Regulation COMP (Cartilage oligomeric matrix protein) [3, 4]: 1.5909 fold
- Fold Up-Regulation CSF2 (Colony stimulating factor 2) [3, 4]: 3.2231 fold
- Fold Up-Regulation CSF3 (Colony stimulating factor 3) [3, 4]: 1.3504 fold
- Fold Up-Regulation CTSK (Cathepsin K) [3, 4]: 1.0843 fold
- Fold Up-Regulation DMP1 (Dentin matrix acidic phosphoprotein 1) [3, 4]: 2.1036 fold
- Fold Up-Regulation DSPP (Dentin sialophosphoprotein) [3, 4]: 2.1036 fold
- Fold Up-Regulation EGF (Epidermal growth factor) [3, 4]: −1.3949 fold
- Fold Up-Regulation EGFR (Epidermal growth factor receptor) [3, 4]: 1.0894 fold
- Fold Up-Regulation ENAM (Enamelin) [3, 4]: 2.1036 fold
- Fold Up-Regulation FGF1 (Fibroblast growth factor 1) [3, 4]: −1.7551 fold
- Fold Up-Regulation FGF2 (Fibroblast growth factor 2) [3, 4]: −1.0498 fold
- Fold Up-Regulation FGF3 (Fibroblast growth factor 3) [3, 4]: −1.5325 fold
- Fold Up-Regulation FGFR1 (Fibroblast growth factor receptor 1) [3, 4]: −1.5568 fold
- Fold Up-Regulation FGFR2 (Fibroblast growth factor receptor 2) [3, 4]: −3.1961 fold
- Fold Up-Regulation FLT1 (Fms-related tyrosine kinase 1) [3, 4]: −2.1823 fold
- Fold Up-Regulation FN1 (Fibronectin 1) [3, 4]: −1.4863 fold
- Fold Up-Regulation GAPDH (Glyceraldehyde-3-phosphate dehydrogenase) [3, 4]: −1.0501 fold
- Fold Up-Regulation GDF10 (Growth differentiation factor 10) [3, 4]: 2.1036 fold
- Fold Up-Regulation ICAM1 (Intercellular adhesion molecule 1) [3, 4]: 1.3786 fold
- Fold Up-Regulation IGF1 (Insulin-like growth factor 1) [3, 4]: 15.8816 fold
- Fold Up-Regulation IGF1R (Insulin-like growth factor 1 receptor) [3, 4]: 1.6854 fold
- Fold Up-Regulation IGF2 (Insulin-like growth factor 2) [3, 4]: −2.6412 fold
- Fold Up-Regulation ITGA1 (Integrin, alpha 1) [3, 4]: 1.2807 fold
- Fold Up-Regulation ITGA2 (Integrin, alpha 2) [3, 4]: 1.6174 fold
- Fold Up-Regulation ITGA3 (Integrin, alpha 3) [3, 4]: −2.1172 fold
- Fold Up-Regulation ITGAM (Integrin, alpha M) [3, 4]: 2.5974 fold
- Fold Up-Regulation ITGB1 (Integrin, beta 1) [3, 4]: −1.3007 fold
- Fold Up-Regulation MMP2 (Matrix metallopeptidase 2) [3, 4]: −1.6002 fold
- Fold Up-Regulation MMP8 (Matrix metallopeptidase 8) [3, 4]: −1.0189 fold
- Fold Up-Regulation MMP9 (Matrix metallopeptidase 9) [3, 4]: 2.0169 fold
- Fold Up-Regulation MMP10 (Matrix metallopeptidase 10) [3, 4]: 2.1233 fold
- Fold Up-Regulation MSX1 (Msh homeobox 1) [3, 4]: −1.1393 fold
- Fold Up-Regulation NFKB1 (Nuclear factor of kappa light polypeptide gene enhancer in B-cells 1) [3, 4]: 1.0365 fold
- Fold Up-Regulation PDGFA (Platelet-derived growth factor alpha polypeptide) [3, 4]: −1.1381 fold
- Fold Up-Regulation PHEX (Phosphate regulating endopeptidase homolog, X-linked) [3, 4]: −2.0881 fold
- Fold Up-Regulation RUNX2 (Runt-related transcription factor 2) [3, 4]: −1.1998 fold
- Fold Up-Regulation SCARB1 (Scavenger receptor class B, member 1) [3, 4]: −2.7137 fold
- Fold Up-Regulation SERPIN H1 (Serpin peptidase inhibitor, clade H, member 1) [3, 4]: −2.6434 fold
- Fold Up-Regulation SMAD1 (SMAD family member 1) [3, 4]: −1.2436 fold
- Fold Up-Regulation SMAD2 (SMAD family member 2) [3, 4]: −1.2016 fold
- Fold Up-Regulation SMAD3 (SMAD family member 3) [3, 4]: −2.8152 fold
- Fold Up-Regulation SMAD4 (SMAD family member 4) [3, 4]: −1.0529 fold
- Fold Up-Regulation STATH (Statherin) [3, 4]: 2.5891 fold
- Fold Up-Regulation TFIP11 (Tuftelin interacting protein 11) [3, 4]: −1.6592 fold
- Fold Up-Regulation TGFB1 (Transforming growth factor, beta 1) [3, 4]: −1.3031 fold
- Fold Up-Regulation TGFB2 (Transforming growth factor, beta 2) [3, 4]: 1.619 fold
- Fold Up-Regulation TGFB3 (Transforming growth factor, beta 3) [3, 4]: 3.2853 fold
- Fold Up-Regulation TGFBR1 (Transforming growth factor, beta receptor 1) [3, 4]: 1.5219 fold
- Fold Up-Regulation TGFBR2 (Transforming growth factor, beta receptor II) [3, 4]: −1.7799 fold
- Fold Up-Regulation TNF (Tumor necrosis factor) [3, 4]: 2.7072 fold
- Fold Up-Regulation TUFT1 (Tuftelin 1) [3, 4]: −4.5431 fold
- Fold Up-Regulation TWIST1 (Twist homolog 1) [3, 4]: −1.6813 fold
- Fold Up-Regulation VCAM1 (Vascular cell adhesion molecule 1) [3, 4]: −1.1098 fold
- Fold Up-Regulation VDR (Vitamin D (1,25-dihydroxyvitamin D3) receptor) [3, 4]: −6.6007 fold
- Fold Up-Regulation VEGFA (Vascular endothelial growth factor A) [3, 4]: 1.3548 fold
- Fold Up-Regulation VEGFB (Vascular endothelial growth factor B) [3, 4]: 1.2749 fold
